These results are taken from US20060167001A1, “Pyridazinone-derivatives as pde4 inhibitors” (priority 2002, published 2006).

Data set [1] deals with T1, PDE3A1 (Homo sapiens, UniProt Q14432).
T1 construct: The whole ORF was subcloned into pBacPak9 (Clontech, Palo Alto) using EcoRi; made in house; host or cells: baculovirus (pBacPak9), SF21 insect cells (virus made in SF9); 1000 x g supernatant of the homogenate
Briefly: Inhibition of recombinant PDE3A1, Method B (SPA test). In kind it is biochemical. Particulars: 0.5 μM cAMP, read-out: PDE3 Inhibition [measured as −logIC50 (mol/l)] (converted). The source says:
The cDNA for PDE3A1 (GB no. U36798) was isolated in 2 steps using PCR. A 3′ terminal cDNA fragment of PDE3A1 was amplified from fat cells cDNA (Clontech, Palo Alto) using primers OZ 458 (5′-[…]-3′) and OZ 457 (5′-[…]-3′). The 5′ terminal cDNA fragment of PDE3A1 was amplified from Placenta cDNA (Clontech, Palo Alto) using primers OZ 455 (5′-[…]-3′) and OZ 456 (5′-[…]-3′). The PCR products were cloned into pCR2.1-Topo (Invitrogen, Groningen, NL) under standard conditions (the manufacturer's instructions). The 3′ fragment was cut out with HindII and cloned into the HindII site of the construct carrying the 5′ fragment. The whole ORF was subcloned into pBacPak9 (Clontech, Palo Alto) using EcoRi. Aminoacid 12 is Aspartic Acid like in sequence GB no. AJ005036, aa 69 and aa 110 are respective Serine and Glycine like in both sequences GB no. AJ005036 and GB no. M91667.
(§1) The recombinant baculovirus was prepared by means of homologous recombination in SF9 insect cells. The expression plasmids were cotransfected with Bac-N-Blue (Invitrogen, Groningen, NL) or Baculo-Gold DNA (Pharmingen, Hamburg) using a standard protocol (Pharmingen, Hamburg). Wt virus-free recombinant virus supernatants were selected using plaque assay methods. After that, high-titre virus supernatants were prepared by amplifying 3 times. PDEs were expressed in SF21 cells by infecting 2×10^6 cells/ml with an MOI (multiplicity of infection) between 1 and 10 in serum-free SF900 medium (Life Technologies, Paisley, UK). The cells were cultured at 28° C. for 48-72 hours, after which they were pelleted for 5-10 min at 1000 g and 4° C.
(§2) The SF21 insect cells were resuspended, at a concentration of approx. 10^7 cells/ml, in ice-cold (4° C.) homogenization buffer (20 mM Tris, pH 8.2, containing the following additions: 140 mM NaCl, 3.8 mM KCl, 1 mM EGTA, 1 mM MgCl2, 10 mM β-mercaptoethanol, 2 mM benzamidine, 0.4 mM Pefablock, 10 μM leupeptin, 10 μM pepstatin A, 5 μM trypsin inhibitor) and disrupted by ultrasonication. The homogenate was then centrifuged for 10 min at 1000× g and the supernatant was stored at −80° C. until subsequent use (see below). The protein content was determined by the Bradford method (BioRad, Munich) using BSA as the standard.
PDE3A1 and PDE4B2 activities were inhibited by the said compounds in a modified SPA (scintillation proximity assay) test, supplied by Amersham Biosciences (see procedural instructions “phosphodiesterase [3H]cAMP SPA enzyme assay, code TRKQ 7090”), carried out in 96-well microtitre plates (MTP's). The test volume is 100 μl and contains 20 mM Tris buffer (pH 7.4), 0.1 mg of BSA (bovine serum albumin)/ml, 5 mM Mg^2+, 0.5 μM cAMP (including about 50,000 cpm of [3H]cAMP), 1 μl of the respective substance dilution in DMSO and sufficient recombinant PDE (1000× g supernatant, see above) to ensure that 10-20% of the cAMP is converted under the said experimental conditions. […] After a preincubation of 5 min at 37° C., the reaction is started by adding the substrate (cAMP) and the assays are incubated for a further 15 min; after that, they are stopped by adding SPA beads (50 μl). […] After the beads have been sedimented (>30 min), the MTP's are analyzed in commercially available luminescence detection devices. The corresponding IC50 values of the compounds for the inhibition of PDE activities are determined from the concentration-effect curves by means of non-linear regression.

The target in data set [2] is T2, PDE4B2 (Homo sapiens, UniProt Q07343).
T2 construct: made in house; host or cells: baculovirus, SF21 insect cells (virus made in SF9); 1000 x g supernatant of the homogenate
T2 sequence (Q07343 1-564 isoform Q07343-2): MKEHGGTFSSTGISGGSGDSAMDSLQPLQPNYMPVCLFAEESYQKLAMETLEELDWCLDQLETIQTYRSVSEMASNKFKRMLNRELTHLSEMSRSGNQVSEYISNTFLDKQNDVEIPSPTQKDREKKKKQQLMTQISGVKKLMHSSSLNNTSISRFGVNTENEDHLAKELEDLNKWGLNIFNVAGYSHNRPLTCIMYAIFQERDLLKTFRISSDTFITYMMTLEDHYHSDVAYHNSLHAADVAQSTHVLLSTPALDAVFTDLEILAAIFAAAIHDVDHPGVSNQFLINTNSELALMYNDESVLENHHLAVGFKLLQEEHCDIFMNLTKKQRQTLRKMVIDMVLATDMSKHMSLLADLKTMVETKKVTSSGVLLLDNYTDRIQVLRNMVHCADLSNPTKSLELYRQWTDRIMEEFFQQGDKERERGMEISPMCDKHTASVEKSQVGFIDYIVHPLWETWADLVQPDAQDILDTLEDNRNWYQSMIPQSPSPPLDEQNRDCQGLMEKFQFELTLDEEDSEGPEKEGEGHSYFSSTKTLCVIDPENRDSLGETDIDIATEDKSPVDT
The experiment in a line: Inhibition of recombinant PDE4B2, Method B (SPA test). Type of data set: biochemical. Particulars: 0.5 μM cAMP, read-out: PDE4 Inhibition [measured as −logIC50 (mol/l)] (converted). The protocol: The PDE4B2 (GB no. M97515) was a gift of Prof. M. Conti (Stanford University, USA). It was amplified from the original plasmid (pCMV5) via PCR with primers Rb9 (5′-[…]-3′) and Rb10 (5′-[…]-3′) and cloned into the pCR-Bac vector (Invitrogen, Groningen, NL).
as §1, §2
PDE3A1 and PDE4B2 activities were inhibited by the said compounds in a modified SPA (scintillation proximity assay) test, supplied by Amersham Biosciences (see procedural instructions “phosphodiesterase [3H]cAMP SPA enzyme assay, code TRKQ 7090”), carried out in 96-well microtitre plates (MTP's). The test volume is 100 μl and contains 20 mM Tris buffer (pH 7.4), 0.1 mg of BSA (bovine serum albumin)/ml, 5 mM Mg^2+, 0.5 μM cAMP (including about 50,000 cpm of [3H]cAMP), 1 μl of the respective substance dilution in DMSO and sufficient recombinant PDE (1000× g supernatant, see above) to ensure that 10-20% of the cAMP is converted under the said experimental conditions. […] After a preincubation of 5 min at 37° C., the reaction is started by adding the substrate (cAMP) and the assays are incubated for a further 15 min; after that, they are stopped by adding SPA beads (50 μl). In accordance with the manufacturer's instructions, the SPA beads had previously been resuspended in water, but were then diluted 1:3 (v/v) in water; the diluted solution also contains 3 mM IBMX to ensure a complete PDE activity stop. After the beads have been sedimented (>30 min), the MTP's are analyzed in commercially available luminescence detection devices. The corresponding IC50 values of the compounds for the inhibition of PDE activities are determined from the concentration-effect curves by means of non-linear regression.

Data set [3] has as its target PDE4 (cAMP-specific) (Homo sapiens, UniProt Q07343). The experiment in a line: Inhibition of PDE4 activity, Method A (radioactive cAMP hydrolysis, cytosol of human PMNL). The note with it: cAMP substrate, 1 μM motapizone. In kind it is biochemical.
Data set [4] addresses T3, PDE3 (cGMP-inhibited) (Homo sapiens, UniProt Q14432).
T3 construct: investigated in homogenates of human platelets; from tissue; host or cells: homogenates of human platelets
Briefly: Inhibition of PDE3 activity, Method A (homogenates of human platelets). In kind it is biochemical. The protocol: The PDE activity was determined according to Thompson et al. (Adv Cycl Nucl Res 10: 69-92, 1979) with some modifications (Bauer and Schwabe, Naunyn-Schmiedeberg's Arch Pharmacol 311: 193-198, 1980). The test samples contained 20 mM Tris (pH 7.4), 5 mM MgCl2, 0.5 μM cAMP or cGMP, [^3H]cAMP or [^3H]cGMP (about 30 000 cpm/sample), the PDE isoenzyme-specific additives described in greater detail below, the indicated concentrations of inhibitor and an aliquot of the enzyme solution in a total sample volume of 200 μl. Dilution series of the compounds according to the invention were prepared in DMSO and further diluted in the samples [1:100 (v/v)], to give the desired end concentration of the inhibitors at a DMSO concentration of 1% (v/v), which for its part has only a minute effect on PDE activity.
After preincubation at 37° C. for 5 minutes, the reaction was started by addition of the substrate (cAMP or cGMP). The samples were incubated at 37° C. for a further 15 min. The reaction was terminated by addition of 50 μl 0.2 N HCl. After cooling on ice for 10 minutes and addition of 25 μg 5′-nucleotidase (snake venom from Crotalus atrox), the mixture was again incubated at 37° C. for 10 mih and the samples were then applied to QAE Sephadex A-25 columns (sample volume 1 ml). The columns were eluted with 2 ml of 30 mM ammonium formate (pH 6.0). The radioactivity of the eluate was measured and corrected by the corresponding blank values (measured in the presence of denatured protein); the blank values were less than 5% of the total radioactivity. In no case did the proportion of hydrolyzed nucleotide exceed 30% of the original substrate concentration.
PDE3 (cGMP-inhibited) was investigated in homogenates of human platelets (see Schudt et al., Biochem Pharmacol 1991: 42, 153-162) using cAMP or cGMP as substrate.
The IC50 values were determined from the concentration-inhibition curves by nonlinear regression.

Structures can show the parent of a compound that is named as a salt.

T1 sequence (Q14432 whole entry): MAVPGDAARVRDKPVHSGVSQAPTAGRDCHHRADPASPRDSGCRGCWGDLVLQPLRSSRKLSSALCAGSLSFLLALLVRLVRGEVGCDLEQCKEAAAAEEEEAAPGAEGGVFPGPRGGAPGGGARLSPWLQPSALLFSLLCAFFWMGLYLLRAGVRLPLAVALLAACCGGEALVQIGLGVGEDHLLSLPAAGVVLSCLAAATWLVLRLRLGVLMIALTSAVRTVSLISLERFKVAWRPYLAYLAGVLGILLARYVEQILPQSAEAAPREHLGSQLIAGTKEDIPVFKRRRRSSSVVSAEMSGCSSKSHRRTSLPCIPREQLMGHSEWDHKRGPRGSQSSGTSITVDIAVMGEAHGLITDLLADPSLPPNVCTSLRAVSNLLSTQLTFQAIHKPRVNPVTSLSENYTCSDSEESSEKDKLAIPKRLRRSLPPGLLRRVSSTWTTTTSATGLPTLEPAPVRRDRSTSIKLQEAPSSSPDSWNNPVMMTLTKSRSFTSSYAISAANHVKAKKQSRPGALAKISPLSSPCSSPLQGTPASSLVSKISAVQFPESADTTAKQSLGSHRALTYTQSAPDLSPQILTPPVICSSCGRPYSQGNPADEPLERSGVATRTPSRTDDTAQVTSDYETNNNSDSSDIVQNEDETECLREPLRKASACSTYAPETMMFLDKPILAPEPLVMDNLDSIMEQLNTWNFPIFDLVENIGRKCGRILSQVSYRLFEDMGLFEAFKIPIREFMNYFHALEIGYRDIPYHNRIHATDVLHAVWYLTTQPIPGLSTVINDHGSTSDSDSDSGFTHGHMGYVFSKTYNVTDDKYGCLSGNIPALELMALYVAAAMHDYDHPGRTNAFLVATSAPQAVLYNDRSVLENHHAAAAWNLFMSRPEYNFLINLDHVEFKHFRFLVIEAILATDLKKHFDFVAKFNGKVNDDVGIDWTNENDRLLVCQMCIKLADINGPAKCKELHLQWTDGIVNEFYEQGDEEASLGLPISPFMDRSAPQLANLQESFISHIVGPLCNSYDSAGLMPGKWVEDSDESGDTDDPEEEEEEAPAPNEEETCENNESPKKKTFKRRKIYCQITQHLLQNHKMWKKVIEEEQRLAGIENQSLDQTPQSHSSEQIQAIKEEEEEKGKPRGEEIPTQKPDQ
Sequence of PDE4 (cAMP-specific) (Q07343 whole entry): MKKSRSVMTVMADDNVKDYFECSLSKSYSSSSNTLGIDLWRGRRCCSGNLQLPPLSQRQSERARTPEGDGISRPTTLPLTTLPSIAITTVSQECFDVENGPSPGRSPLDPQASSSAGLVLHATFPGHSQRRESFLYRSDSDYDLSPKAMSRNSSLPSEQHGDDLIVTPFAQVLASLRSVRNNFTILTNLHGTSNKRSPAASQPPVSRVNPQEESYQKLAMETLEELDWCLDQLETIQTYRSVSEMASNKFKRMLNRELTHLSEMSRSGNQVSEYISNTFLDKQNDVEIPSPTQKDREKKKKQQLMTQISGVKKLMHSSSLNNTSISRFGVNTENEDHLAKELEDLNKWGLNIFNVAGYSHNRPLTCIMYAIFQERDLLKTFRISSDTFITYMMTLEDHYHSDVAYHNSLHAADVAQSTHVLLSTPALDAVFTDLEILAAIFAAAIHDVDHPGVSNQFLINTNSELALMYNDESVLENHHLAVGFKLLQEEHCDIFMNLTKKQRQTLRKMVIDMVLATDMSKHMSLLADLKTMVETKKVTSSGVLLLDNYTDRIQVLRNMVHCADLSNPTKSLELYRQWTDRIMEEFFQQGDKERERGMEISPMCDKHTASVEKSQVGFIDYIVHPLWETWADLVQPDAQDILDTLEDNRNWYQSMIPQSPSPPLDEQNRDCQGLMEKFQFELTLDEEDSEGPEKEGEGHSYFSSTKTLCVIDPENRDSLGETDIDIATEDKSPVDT
T3 sequence (Q14432 whole entry): as the sequence (Q14432 whole entry) above

In turn, `COc1ccc(C2=NN(C3CCN(C(=O)c4ccccc4)CC3)C(=O)CC2)cc1OC` [Compound 23, 6-(3,4-Dimethoxy-phenyl)-2-[1-(1-phenyl-methanoyl)-piperidin-4-yl]-4,5-dihydro-2H-pyridazin-3-one] had a melting point of 152 to 154 °C. In addition, the IC50 in data set [1] is 126 nM. In addition, the IC50 in data set [2] is 7.94 nM.

`COc1ccc(C2=NN(C3CCN(CC(=O)N4CCN(C)CC4)CC3)C(=O)CC2)cc1OC.Cl.Cl` [Compound 28, 6-(3,4-Dimethoxy-phenyl)-2-{1-[2-(4-methyl-piperazin-1-yl)-2-oxo-ethyl]-piperidin-4-yl}-4,5-dihydro-2H-pyridazin-3-one dihydrochloride] registered a melting point of 194 to 199 °C. In addition, the IC50 in data set [1] was more than 10000 nM. In data set [2], the IC50 is 20 nM.

As for `COc1ccc(OC)c(S(=O)(=O)N2CCC(N3N=C(c4ccc(OC)c(OC)c4)CCC3=O)CC2)c1` [Compound 17], the “PDE4 Inhibition [measured as −logIC50 (mol/l)]” value in data set [3] is 7.8 -log(mol/l). Besides, the “PDE3 Inhibition [measured as −logIC50 (mol/l)]” value in data set [4] is on record as 6.8 −log(mol/l) (pIC50).

`COc1ccc(C2=NN(C3CCN(C(=O)c4c(Cl)cc(Cl)cc4Cl)CC3)C(=O)CC2)cc1OC` [Compound 25, 6-(3,4-Dimethoxy-phenyl)-2-{1-[1-(2,4,6-trichloro-phenyl)-methanoyl]-piperidin-4-yl}-4,5-dihydro-2H-pyridazin-3-one] registered a melting point of 156 to 159 °C. In addition, the IC50 in data set [1] was 15.8 nM. Also, in data set [2], the IC50 is 2.51 nM.

Take `COc1ccc(C2=NN(C3CCN(C(=O)CN4CCN(c5ccncc5)CC4)CC3)C(=O)CC2)cc1OC` [Compound 29, 6-(3,4-Dimethoxy-phenyl)-2-{1-[2-(4-pyridin-4-yl-piperazin-1-yl)-ethanoyl]-piperidin-4-yl}-4,5-dihydro-2H-pyridazin-3-one dihydrochloride]: the IC50 in data set [1] is 3160 nM; in data set [2], 15.8 nM.

On to `COc1ccc(C2=NN(C3CCN(S(=O)(=O)c4cccs4)CC3)C(=O)CC2)cc1OC` [Compound 19, 6-(3,4-Dimethoxy-phenyl)-2-[1-(thiophene-2-sulfonyl)-piperidin-4-yl]-45-dihydro-2H-pyridazin-3-one], for which, in data set [3], the “PDE4 Inhibition [measured as −logIC50 (mol/l)]” value is listed as 8.3 -log(mol/l). The “PDE3 Inhibition [measured as −logIC50 (mol/l)]” value in data set [4] was 6.9 −log(mol/l) (pIC50).

The compound `COc1ccc(C2=NN(C3CCN(C(=O)CN4CCN(C(c5ccccc5)c5ccccc5)CC4)CC3)C(=O)CC2)cc1OC.Cl.Cl` [Compound 31, 6-(3,4-Dimethoxy-phenyl)-2-(1-{2-[4-(1,1-diphenyl-methyl)-piperazin-1-yl]-ethanoyl}-piperidin-4-yl)-4,5-dihydro-2H-pyridazin-3-one dihydrochloride] displayed a melting point of 126 to 127 °C. Further, the IC50 in data set [1] is 3980 nM. Besides, the IC50 in data set [2] was 39.8 nM.
